Patent publication US20160108049A1 (TAKEDA Gmbh, priority 2011, published 2016)
Values belong to the compound of their own block, whether it stands above or below them.

Legend:
PDE4B1 = biological target: T1, PDE4B1 (Homo sapiens, UniProt Q07343); assay: Inhibition of PDE4 activity (PDE4B1, SPA assay); assay type: biochemical; settings: recombinant PDE4B1, 0.5 μM cAMP; read-out: PDE4B1 Inhibitory values measured as -logIC50 (converted)
T1 construct: made in house; host or cells: SF21 insect cells (baculovirus; virus made in SF9 cells, pCR-Bac vector)
Summary of the method: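 Read-out is SPA yttrium silicate bead scintillation after IBMX-containing beads stop the reaction. Insect-cell (SF21) lysate enzyme hydrolysed 0.5 μM [3H]cAMP at pH 7.4 with 5 mM Mg2+ for 15 min after a 5 min 37 °C preincubation; IC50 fitted by non-linear regression.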

human PDE5 = biological target: T2, human PDE5 (Homo sapiens, UniProt O76074); assay: Inhibition of PDE5 activity (platelet lysate, SPA assay); assay type: biochemical; settings: 0.5 μM cGMP, read-out: PDE5 Inhibitory values measured as -logIC50 (converted)
T2 construct: from tissue; host or cells: human platelets from fresh donor blood (platelet lysate)
Summary of the method: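 SPA readout of [3H]cGMP hydrolysis (0.5 μM, 15 min, 37 °C after 5 min preincubation), stopped with yttrium silicate beads containing IBMX. Enzyme was lysate from human platelets, used at 10–20% substrate turnover, with PDE3 (motapizone 1 μM) and PDE2 (10 nM) blockers present. IC50 values fitted non-linearly from concentration-effect curves.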

T1 sequence (Q07343 whole entry): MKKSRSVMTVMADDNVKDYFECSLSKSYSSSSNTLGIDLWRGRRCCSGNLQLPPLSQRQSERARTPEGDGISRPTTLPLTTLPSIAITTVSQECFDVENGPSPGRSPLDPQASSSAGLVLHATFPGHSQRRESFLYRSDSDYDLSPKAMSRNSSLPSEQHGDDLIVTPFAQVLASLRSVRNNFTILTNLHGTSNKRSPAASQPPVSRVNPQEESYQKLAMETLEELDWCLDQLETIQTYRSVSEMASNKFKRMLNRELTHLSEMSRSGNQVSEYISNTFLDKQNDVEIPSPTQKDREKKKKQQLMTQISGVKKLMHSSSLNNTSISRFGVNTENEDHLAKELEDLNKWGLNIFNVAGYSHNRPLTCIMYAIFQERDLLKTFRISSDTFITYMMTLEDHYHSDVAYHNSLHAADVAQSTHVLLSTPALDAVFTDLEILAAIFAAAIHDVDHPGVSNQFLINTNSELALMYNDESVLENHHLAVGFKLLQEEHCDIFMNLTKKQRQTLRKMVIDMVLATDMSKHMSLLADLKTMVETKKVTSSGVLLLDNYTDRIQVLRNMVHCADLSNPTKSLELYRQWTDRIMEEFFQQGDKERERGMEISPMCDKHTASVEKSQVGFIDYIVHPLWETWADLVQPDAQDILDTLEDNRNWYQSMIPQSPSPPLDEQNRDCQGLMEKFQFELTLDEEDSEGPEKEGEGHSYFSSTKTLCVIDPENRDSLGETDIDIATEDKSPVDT

IC50 (PDE4B1): < 1 nM
IC50 (human PDE5): < 1 nM
SMILES: COc1ccc(C2=NN(C3CCN(C(=O)[C@@H](Cc4c[nH]c5ccccc45)NC(=O)c4c[nH]c5c(-c6c(OCC7CC7)ccc7c6OCO7)ncnc45)CC3)C(=O)[C@@H]3CCCC[C@H]23)cc1OC [Example 91, 4-[5-(cyclopropylmethoxy)-1,3-benzodioxol-4-yl]-N-[(2R)-1-{4-[(4aS,8aR)-4-(3,4-dimethoxyphenyl)-1-oxo-4a,5,6,7,8,8a-hexahydrophthalazin-2(1H)-yl]piperidin-1-yl}-3-(1H-indol-3-yl)-1-oxopropan-2-yl]-5H-pyrrolo[3,2-d]pyrimidine-7-carboxamide]

IC50 (PDE4B1): > 10 nM
IC50 (human PDE5): 1 to 10 nM
SMILES: COc1ccc(C2=NN(C3CCN(C(=O)[C@@H](Cc4ccccc4)NC(=O)c4c[nH]c5c(-c6c(OCC7CC7)ccc7c6OCO7)ncnc45)CC3)C(=O)[C@H]3CCCC[C@@H]23)cc1OC [Example 45, 4-[5-(cyclopropylmethoxy)-1,3-benzodioxol-4-yl]-N-[(2R)-1-{4-[(4aR,8aS)-4-(3,4-dimethoxyphenyl)-1-oxo-4a,5,6,7,8,8a-hexahydrophthalazin-2(1H)-yl]piperidin-1-yl}-1-oxo-3-phenylpropan-2-yl]-5H-pyrrolo[3,2-d]pyrimidine-7-carboxamide]

IC50 (PDE4B1): > 10 nM
IC50 (human PDE5): 1 to 10 nM
SMILES: COc1ccc(C2=NN(C3CCN(C(=O)[C@H](Cc4ccccc4)NC(=O)c4c[nH]c5c(-c6c(OCC7CC7)ccc7c6OCO7)ncnc45)CC3)C(=O)[C@H]3CCCC[C@@H]23)cc1OC [Example 44, 4-[5-(cyclopropylmethoxy)-1,3-benzodioxol-4-yl]-N-[(2S)-1-{4-[(4aR,8aS)-4-(3,4-dimethoxyphenyl)-1-oxo-4a,5,6,7,8,8a-hexahydrophthalazin-2(1H)-yl]piperidin-1-yl}-1-oxo-3-phenylpropan-2-yl]-5H-pyrrolo[3,2-d]pyrimidine-7-carboxamide]

IC50 (PDE4B1): < 1 nM
IC50 (human PDE5): 1 to 10 nM
SMILES: COc1ccc(C2=NN(C3CCN(C(=O)[C@H](NC(=O)c4c(C)[nH]c5c(-c6c(OCC7CC7)ccc7c6OCO7)ncnc45)[C@H](C)c4ccccc4)CC3)C(=O)[C@@H]3CCCC[C@H]23)cc1OC [Example 51, 4-[5-(cyclopropylmethoxy)-1,3-benzodioxol-4-yl]-N-[(2R,3R)-1-{4-[(4aS,8aR)-4-(3,4-dimethoxyphenyl)-1-oxo-4a,5,6,7,8,8a-hexahydrophthalazin-2(1H)-yl]piperidin-1-yl}-1-oxo-3-phenylbutan-2-yl]-6-methyl-5H-pyrrolo[3,2-d]pyrimidine-7-carboxamide]

IC50 (PDE4B1): < 1 nM
IC50 (human PDE5): < 1 nM
SMILES: COc1ccc(C2=NN(C3CCN(C(=O)[C@H](Cc4cccnc4)NC(=O)c4c(C)[nH]c5c(-c6c(OCC7CC7)ccc7c6OCO7)ncnc45)CC3)C(=O)[C@@H]3CCCC[C@H]23)cc1OC [Example 42, 4-[5-(cyclopropylmethoxy)-1,3-benzodioxol-4-yl]-N-[(2S)-1-{4-[(4aS,8aR)-4-(3,4-dimethoxyphenyl)-1-oxo-4a,5,6,7,8,8a-hexahydrophthalazin-2(1H)-yl]piperidin-1-yl}-1-oxo-3-(pyridin-3-yl)propan-2-yl]-6-methyl-5H-pyrrolo[3,2-d]pyrimidine-7-carboxamide]

IC50 (PDE4B1): < 1 nM
IC50 (human PDE5): < 1 nM
SMILES: COc1ccc(C2=NN(C3CCN(C(=O)[C@@H](Cc4c[nH]cn4)NC(=O)c4c[nH]c5c(-c6c(OCC7CC7)ccc7c6OCO7)ncnc45)CC3)C(=O)[C@@H]3CCCC[C@H]23)cc1OC [Example 89, 4-[5-(cyclopropylmethoxy)-1,3-benzodioxol-4-yl]-N-[(2R)-1-{4-[(4aS,8aR)-4-(3,4-dimethoxyphenyl)-1-oxo-4a,5,6,7,8,8a-hexahydrophthalazin-2(1H)-yl]piperidin-1-yl}-3-(1H-imidazol-4-yl)-1-oxopropan-2-yl]-5H-pyrrolo[3,2-d]pyrimidine-7-carboxamide]

The remaining lines, values behind:

SMILES: COc1ccc(C2=NN(C3CCN(C(=O)[C@@H](CCC(=O)O)NC(=O)c4c[nH]c5c(-c6c(OCC7CC7)ccc7c6OCO7)ncnc45)CC3)C(=O)[C@@H]3CCCC[C@H]23)cc1OC [Example 101, (4R)-4-[({4-[5-(cyclopropylmethoxy)-1,3-benzodioxol-4-yl]-5H-pyrrolo[3,2-d]pyrimidin-7-yl}carbonyl)amino]-5-{4-[(4aS,8aR)-4-(3,4-dimethoxyphenyl)-1-oxo-4a,5,6,7,8,8a-hexahydrophthalazin-2(1H)-yl]piperidin-1-yl}-5-oxopentanoic acid]
IC50 (PDE4B1): 1 to 10 nM
IC50 (human PDE5): 1 to 10 nM

SMILES: COc1ccc(C2=NN(C3CCN(C(=O)C[C@@H](Cc4ccccc4)NC(=O)c4c[nH]c5c(-c6c(OCC7CC7)ccc7c6OCO7)ncnc45)CC3)C(=O)C(C)(C)C2)cc1OC [Example 78, 4-[5-(cyclopropylmethoxy)-1,3-benzodioxol-4-yl]-N-[(2R)-4-{4-[3-(3,4-dimethoxyphenyl)-5,5-dimethyl-6-oxo-5,6-dihydropyridazin-1(4H)-yl]piperidin-1-yl}-4-oxo-1-phenylbutan-2-yl]-5H-pyrrolo[3,2-d]pyrimidine-7-carboxamide]
IC50 (PDE4B1): 1 to 10 nM
IC50 (human PDE5): 1 to 10 nM

SMILES: COc1ccc(C2=NN(C3CCN(C(=O)[C@@H](NC(=O)c4c[nH]c5c(-c6c(OCC7CC7)ccc7c6OCO7)ncnc45)C4CCCCC4)CC3)C(=O)[C@@H]3CCCC[C@H]23)cc1OC [Example 73, N-[(1S)-1-cyclohexyl-2-{4-[(4aS,8aR)-4-(3,4-dimethoxyphenyl)-1-oxo-4a,5,6,7,8,8a-hexahydrophthalazin-2(1H)-yl]piperidin-1-yl}-2-oxoethyl]-4-[5-(cyclopropylmethoxy)-1,3-benzodioxol-4-yl]-5H-pyrrolo[3,2-d]pyrimidine-7-carboxamide]
IC50 (PDE4B1): 1 to 10 nM
IC50 (human PDE5): 1 to 10 nM

SMILES: CCC1(CC)CC(c2ccc(OC)c(OC)c2)=NN(C2CCN(C(=O)[C@@H](Cc3ccccc3)NC(=O)c3c[nH]c4c(-c5c(OCC6CC6)ccc6c5OCO6)ncnc34)CC2)C1=O [Example 116, 4-[5-(cyclopropylmethoxy)-1,3-benzodioxol-4-yl]-N-[(2R)-1-{4-[3-(3,4-dimethoxyphenyl)-5,5-diethyl-6-oxo-5,6-dihydropyridazin-1(4H)-yl]piperidin-1-yl}-1-oxo-3-phenylpropan-2-yl]-5H-pyrrolo[3,2-d]pyrimidine-7-carboxamide]
IC50 (PDE4B1): 1 to 10 nM
IC50 (human PDE5): 1 to 10 nM

SMILES: COc1ccc(C2=NN(C3CCN(C(=O)[C@@H](Cc4ccc(N5CCCC5=O)cc4)NC(=O)c4c[nH]c5c(-c6c(OCC7CC7)ccc7c6OCO7)ncnc45)CC3)C(=O)[C@@H]3CCCC[C@H]23)cc1OC [Example 113, 4-[5-(cyclopropylmethoxy)-1,3-benzodioxol-4-yl]-N-{(2R)-1-{4-[(4aS,8aR)-4-(3,4-dimethoxyphenyl)-1-oxo-4a,5,6,7,8,8a-hexahydrophthalazin-2(1H)-yl]piperidin-1-yl}-1-oxo-3-[4-(2-oxopyrrolidin-1-yl)phenyl]propan-2-yl}-5H-pyrrolo[3,2-d]pyrimidine-7-carboxamide]
IC50 (PDE4B1): < 1 nM
IC50 (human PDE5): < 1 nM

SMILES: COc1cc(OCC2CC2)c(-c2ncnc3c(C(=O)N[C@@H](Cc4cccc(C)c4)C(=O)N4CCC(N5N=C(c6ccc(OC)c(OC)c6)[C@H]6CCCC[C@H]6C5=O)CC4)c(C)[nH]c23)cc1F [Example 2, 4-[2-(cyclopropylmethoxy)-5-fluoro-4-methoxyphenyl]-N-[(2S)-1-{4-[(4aS,8aR)-4-(3,4-dimethoxyphenyl)-1-oxo-4a,5,6,7,8,8a-hexahydrophthalazin-2(1H)-yl]piperidin-1-yl}-3-(3-methylphenyl)-1-oxopropan-2-yl]-6-methyl-5H-pyrrolo[3,2-d]pyrimidine-7-carboxamide]
IC50 (PDE4B1): 1 to 10 nM
IC50 (human PDE5): 1 to 10 nM
